A word on the pKa: it is the pH at which an ionisable group is half protonated.

This is an account of results in publication PMC8836073, “Activatable Peptides for Rapid and Simple Visualization of Protease Activity Secreted in Living Cells” (International Journal of Molecular Sciences, 2022).

In data set [1] the target is T1, MMP2 secreted by HT-1080 cells (Homo sapiens, UniProt P08253).
T1 construct: endogenous in cells; host or cells: HT-1080 human fibrosarcoma cells
T1 sequence (P08253 110-660): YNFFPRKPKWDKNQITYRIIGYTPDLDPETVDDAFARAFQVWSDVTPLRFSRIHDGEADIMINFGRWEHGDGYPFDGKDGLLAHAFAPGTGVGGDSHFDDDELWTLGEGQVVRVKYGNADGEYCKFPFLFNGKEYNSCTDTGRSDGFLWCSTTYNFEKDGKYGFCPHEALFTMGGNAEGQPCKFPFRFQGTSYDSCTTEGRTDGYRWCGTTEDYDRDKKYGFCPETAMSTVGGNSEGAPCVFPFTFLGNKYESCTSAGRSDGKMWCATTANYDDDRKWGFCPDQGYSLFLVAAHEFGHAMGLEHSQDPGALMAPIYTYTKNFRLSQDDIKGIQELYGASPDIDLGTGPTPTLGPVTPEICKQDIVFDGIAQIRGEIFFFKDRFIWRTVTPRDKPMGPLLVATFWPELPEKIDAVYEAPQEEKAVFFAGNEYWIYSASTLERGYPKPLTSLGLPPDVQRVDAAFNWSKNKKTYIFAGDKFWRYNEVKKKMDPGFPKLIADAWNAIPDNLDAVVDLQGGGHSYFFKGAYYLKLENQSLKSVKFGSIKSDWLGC
The data set is described as follows: Pep1 intracellular fluorescence in HT-1080 cells with MMP2 inhibitor. The note with it: HT-1080, Pep1 final 10 μM, MMP2 inhibitor (Figure S3). It is filed as cell-based. The protocol: (§1) For live cell imaging, HT-1080 or HT-29 cells were cultured in Lab-Tek II chambered coverglass (Thermo Fisher Scientific) containers in RPMI-1640 media containing 10% FBS and 1× P/S at 37 °C. When the cells were 80% confluent, the culture medium was rinsed and changed to a fresh serum-free medium, followed by the addition of peptide probes at a final concentration of 10 μM. For organelle images, nuclei and lysosomes (or late endosomes) were stained with NucBlue (1 drop) and Lysotracker Red (50 nM) in serum-free media, respectively, and incubated in the dark for 10 min. After washing of the cells and removal of the chamber, cells adhering to the coverglass were subjected to bright-field or fluorescent images using a confocal microscope (Nikon C2si+, Japan). The excitation/emission wavelengths of NucBlue, FITC, and Lysotracker Red were 352/454 nm, 488/525 nm, and 577/590 nm, respectively. Typically, images were collected using a pixel dwell time of 10.3 μs on a 512 × 512 pixel image with 1 mW light power at the objective through a pinhole (60 μm) to reach the PMT. The frame rate was rather slow; the frame rate was about 0.255 FPS (frame per second) for a 512 × 512 frame (i.e., 1 frame per 3.9 s). To gain time-lapse images for FITC in living cells, one video file was constructed with images taken every 20 s for 30 min. […]

For data set [2] the following is noted: FITC fluorescence; no reference given; cited from earlier work. Here is the method: Figure 4A,B were nearly identical to the images obtained at 2 h in Figure 3A,B, respectively. […] There was no signi ...
The target in data set [3] is T2, active MMP2 (Homo sapiens, UniProt P08253).
T2 construct: active MMP2 (No. PF023), and active MMP9 (No. PF024) were purchased from Merck Millipore; purchased Merck Millipore PF023
T2 sequence (P08253 110-660): T1 sequence (P08253 110-660)
The experiment in a line: Fluorescent gel electrophoresis of peptide cleavage by active MMP2. It is filed as biochemical. The note with it: peptide final 50 μM, active MMP2 final 0.1 μg in 40 μL; 20 mM Tris-HCl, 5 mM CaCl2, 100 mM NaCl, pH 7.6; 120 min, 37 °C; 0.8% agarose gel, FITC fluorescence. The protocol:
(§2) Fluorescent gel electrophoresis was performed on 0.8% agarose gel at 50 V for 60 min. The agarose gel was cast and run using 0.5 × TB buffer. For the protease assay, Pep1 or Pep2 (1 μL at 2 mM, final 50 μM) was mixed with active MMP2 or active MMP9 (1 μL, final 0.1 μg) at a final volume of 40 μL in standard reaction buffer (20 mM Tris-HCl containing 5 mM CaCl2 and 100 mM NaCl, pH 7.6). The reactants were incubated in a tube for 120 min at 37 °C to induce the enzyme reaction, and 30 μL of the solution were loaded onto the agarose gel. As a control, a solution of Pep1 or Pep 2 (1 μL at 2 mM) without enzymes was resuspended in a reaction buffer (for a total of 40 μL), and the aliquot (30 μL) was used in gel electrophoresis. The fluorescent image of the agarose was captured using a home-built transilluminator equipped with a blue light-emitting diode lamp. The original image underwent a pseudo-color imaging process using an image-editing function in Microsoft PowerPoint 365.

In data set [4] the test system is HT-1080 cells (MMP2-positive). The experiment in a line: Live cell confocal imaging of peptide uptake in HT-1080 cells. The note with it: for intracellular fluorescence (confocal images, FITC channel): HT-1080, peptide final 10 μM in serum-free CM, 2 h after treatment. It is filed as cell-based, Human. The protocol:
For live cell imaging, HT-1080 or HT-29 cells were cultured in Lab-Tek II chambered coverglass (Thermo Fisher Scientific) containers in RPMI-1640 media containing 10% FBS and 1× P/S at 37 °C. When the cells were 80% confluent, the culture medium was rinsed and changed to a fresh serum-free medium, followed by the addition of peptide probes at a final concentration of 10 μM. For organelle images, nuclei and lysosomes (or late endosomes) were stained with NucBlue (1 drop) and Lysotracker Red (50 nM) in serum-free media, respectively, and incubated in the dark for 10 min. After washing of the cells and removal of the chamber, cells adhering to the coverglass were subjected to bright-field or fluorescent images using a confocal microscope (Nikon C2si+, Japan). The excitation/emission wavelengths of NucBlue, FITC, and Lysotracker Red were 352/454 nm, 488/525 nm, and 577/590 nm, respectively. Typically, images were collected using a pixel dwell time of 10.3 μs on a 512 × 512 pixel image with 1 mW light power at the objective through a pinhole (60 μm) to reach the PMT. The frame rate was rather slow; the frame rate was about 0.255 FPS (frame per second) for a 512 × 512 frame (i.e., 1 frame per 3.9 s). To gain time-lapse images for FITC in living cells, one video file was constructed with images taken every 20 s for 30 min. Imaging analysis was performed using the NIS-Elements microscope imaging software (Ver 2.0).

The target in data set [5] is T3, active MMP9 (Homo sapiens, UniProt P14780).
T3 construct: active MMP2 (No. PF023), and active MMP9 (No. PF024) were purchased from Merck Millipore; purchased Merck Millipore PF024
The experiment in a line: Fluorescent gel electrophoresis of peptide cleavage by active MMP9. The note with it: peptide final 50 μM, active MMP9 final 0.1 μg in 40 μL; 20 mM Tris-HCl, 5 mM CaCl2, 100 mM NaCl, pH 7.6; 120 min, 37 °C; 0.8% agarose gel, FITC fluorescence. It is filed as biochemical. The protocol: as §2

Data set [6] concerns HeLa cells. The experiment in a line: Peptide uptake in HeLa cells. In kind it is cell-based. The note with it: unlike HT-1080 cells.
In data set [7] the test system is HT-29 cells (MMP2-negative). The data set is described as follows: Live cell confocal imaging of peptide uptake in HT-29 cells. In kind it is cell-based, Human. Here is the method: as §1

T3 sequence (P14780 107-707 limits assumed): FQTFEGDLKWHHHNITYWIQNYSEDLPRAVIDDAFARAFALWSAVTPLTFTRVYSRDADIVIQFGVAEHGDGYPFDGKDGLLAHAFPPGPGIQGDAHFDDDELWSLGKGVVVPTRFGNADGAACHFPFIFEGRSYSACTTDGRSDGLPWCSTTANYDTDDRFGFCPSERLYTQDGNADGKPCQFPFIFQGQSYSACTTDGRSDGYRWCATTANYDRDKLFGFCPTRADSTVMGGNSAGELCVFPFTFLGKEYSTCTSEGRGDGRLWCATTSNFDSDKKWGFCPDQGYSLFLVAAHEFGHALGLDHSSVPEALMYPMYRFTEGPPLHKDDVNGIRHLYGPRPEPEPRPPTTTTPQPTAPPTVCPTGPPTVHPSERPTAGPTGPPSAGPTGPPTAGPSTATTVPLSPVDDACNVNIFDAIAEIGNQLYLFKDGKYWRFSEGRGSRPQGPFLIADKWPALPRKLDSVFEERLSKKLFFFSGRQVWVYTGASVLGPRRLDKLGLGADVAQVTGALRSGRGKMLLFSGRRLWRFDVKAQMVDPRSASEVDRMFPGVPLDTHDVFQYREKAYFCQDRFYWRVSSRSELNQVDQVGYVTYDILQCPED

In the case of `O=C(O)[C@@H](Cc1ccccc1)NS(=O)(=O)c1ccc(-c2ccccc2)cc1` [MMP2 inhibitor, (2R)-2-[(4-biphenylylsulfonyl)amino]-3-phenylpropionic acid], the “effect on intracellular fluorescence intensity of Pep1” value in data set [1] is given as “significantly reduced”.

For fluorescein isothiocyanate [FITC], in data set [2], the pKa was 6.5.

With EEEEGGRRRRK-FITC [Pep2], the “cleavage by active MMP2 (fluorescent band shift on agarose gel)” value in data set [3] is reported as “did not show any fluorescent band shifts”. Further, the “intracellular fluorescence (confocal images, FITC channel)” value in data set [4] (37 °C) is reported as “No significant fluorescence images”. Moreover, the “cleavage by active MMP9 (fluorescent band shift on agarose gel)” value in data set [5] is listed as “did not show any fluorescent band shifts”.

Turning to “LRSGGG-R4-FITC [cleaved Pep1, fluorescent fragment of Pep1 after MMP2 cleavage]”, in data set [6], the “uptake by HeLa cells” value is “did not take up”.

On to EEEEGGIPVSLRSGGGRRRRK-FITC [Pep1], for which the “intracellular fluorescence (confocal images, FITC channel)” value was “No significant fluorescence images” in data set [7] (HT-29, peptide final 10 μM in serum-free CM, 2 h after treatment, 37 °C) and “strong fluorescence images” in data set [4] (37 °C). Besides, the “time-lapse fluorescence (30 min)” value in data set [7] (living HT-29, Pep1 final 10 μM, 30 min) is given as “no significant increase”. Besides, the “cleavage by active MMP2 (fluorescent band shift on agarose gel)” value in data set [3] is “strong fluorescent band shift”. Besides, the cellular uptake in data set [4] (HT-1080 cells, 30 min, percentage of FITC-stained cells over total cells) was 40~60%. Besides, the “time-lapse signal intensity (0 to 30 min)” value in data set [4] (living HT-1080, peptide final 10 μM, 37 °C, compared to Pep2, triplicate experiments) is “increased even after just 5 min”. Also, in data set [5], the “cleavage by active MMP9 (fluorescent band shift on agarose gel)” value is reported as “less effective than that by MMP2”.

On to “GGIPVSLRSGGGRRRRK-FITC [Pep3, FITC-labeled positive control peptide without E4]”, for which, in data set [6], the “uptake by HeLa cells” value is “did not take up”. The “intracellular fluorescence (confocal images, FITC channel)” value in data set [4] (37 °C) is on record as “strong fluorescence images”.
